{"source": "patent US20030059511A1", "about": "“Sweetener compositions and uses thereof” (AJINOMOTO CO., INC., priority 1999, published 2003)", "type_in_all_cases": "in vivo, human", "key": {"[1]": {"test": "Equivalent concentration of bitter taste, sensory evaluation, arginine solution (Example 28)", "conditions": "2% arginine solution; addition 4.4 ppm; as concentration of anhydrous caffeine; 10 panelists; no addition 0.131", "description": "(§1) With respect to the solution produced by adding derivative 1 (the product of the present invention), or adding nothing (no addition; the reference product) in the concentration shown in the following table 4 to the amino acid solution (2% solution of arginine by weight), the sensory evaluation was performed (using 10 panelists), and the equivalent concentration of bitter taste was determined. The results were shown in the table 4, wherein the equivalent concentration of bitter taste was shown in the concentration of aqueous solution of anhydrous caffeine which is a substance of bitter taste."}, "[2]": {"test": "Magnification of sweetness intensity in the cola drink (sensory evaluation against sucrose cola drinks)", "conditions": "for magnification of sweetness intensity in the cola drink: vs cola drink containing 10% sucrose", "source_text": "And the magnification of sweetness intensity in the cola drink can be also determined by the same method compared to the control solution of cola drink containing 10% sucrose.\nThe composition of cola drink is as follows.\nAs for the concentration of the references, the sucrose concentrations of previous (a) to (e) were used. In consequence, the magnification of sweetness intensity in the cola drink of derivative 1 was 22600 times, and that of derivative 2 was 4900 times.\nAnd the magnification of sweetness intensity in the cola drink can be also determined by the same method compared to the reference solution of cola drink containing 10% sucrose.\nThe components of cola drink is as follows.\nAs for the concentration of the references, the sucrose concentrations of previous (a) to (e) were used. As the results, the magnification of sweetness intensity in the cola drink of derivative 1 was 22600 times, and that of derivative 2 was 4900 times.\nAnd the magnification of sweetness in the cola drink can be also determined by the same method compared to the control solution of cola drink containing 10% sucrose.\nAs for the concentration of the references, the sucrose concentrations of previous (a) to (e) were used. As a result, the magnification of sweetness intensity in the cola drink of derivative 1 was 22600 times, and that of derivative 2 was 4900 times."}, "[3]": {"test": "Taste characteristics in an aqueous solution (9 items, similarity index vs aqueous 10% sucrose solution)", "conditions": "PSE 10%, smaller = closer to sucrose, 8 panelists", "description": "The following experiments were performed using the water obtained by ion exchanging and further distilling the water.\nAn aqueous solution of each of derivatives 1 to 9 having a sweetness level equivalent to that of PSE 10% was prepared, and compared with aqueous 10% sucrose solution with respect to the following 9 items, i.e., “onset of the taste”, “round taste”, “clear taste”, “lingering taste”, “peculiar taste”, “heavy taste”, “bitter taste”, “astringent taste” and “irritation”. The results were determined as 5 levels (−2 point: very weak, −1 point: a little weak, 0 point: same, +1 point: a little strong, +2 point: very strong) by 8 panelists, and the average points were calculated. The sample solutions of the derivatives equivalent to PSE 10%, were prepared by using the magnification of sweetness intensity measured in Example 1, and the amounts of each derivatives to be used were as follows.\nNext, the total of the absolute value of the deviation from sucrose in each of the evaluation items consisting of the onset of the taste, the round taste, the clear taste, the lingering taste, the peculiar taste, the heavy taste, the bitter taste, the astringent taste and the irritation was divided by 9 (total number of items) to calculate the similarity (which is referred to as “similarity index”). The smaller the similarity index becomes, the better the taste balances, and the closer the taste is to the taste characteristics (quality) of sucrose. The total taste becomes preferable. The similarity indexes of each derivatives are shown as follows.\nTo the aqueous solution of derivative 1 having a sweetness level equivalent to that of PSE 10%, salt was added as final concentratins of 0.1%, 0.2% and 0.5% to compare with the aqueous solution of 10% sucrose for by 2 points comparison method (n=8) and evaluate the characteristics of the taste.\nThe sensory evaluation was performed by the same way as Example 6.\nThe following experiments were conducted using the water obtained by ion exchanging and further distilling tap water.\nAn aqueous solution of each of derivatives 1 to 9 having a sweetness level equivalent to that of PES 10% was prepared, and compared with aqueous 10% sucrose solution with respect to 9 items, namely, “the onset of the taste”, “round taste”, “clear taste”, “lingering taste”, “peculiar taste”, “heavy taste”, “bitter taste”, “astringent taste” and “irritation”. The results were determined as 5 levels (−2 point: very weak, −1 point: a little weak, 0 point: same, +1 point: a little strong, +2 point: very strong) by 8 panelists, and the average points were calculated.\nNext, the total of the absolute value of the deviation from sucrose in each of the evaluation items consisting of onset of the taste, round taste, clear taste, lingering taste, peculiar taste, heavy taste, bitter taste, astringent taste and irritation was divided by 9 (total number of items) to calculate the similarity (which is refer to as “similarity index”). The smaller the similarity index becomes, the better the taste balances, and the closer the taste is to the taste characteristics (quality) of sucrose. The total taste becomes preferable. The similarity indexes of each of the derivatives are shown as follows."}, "[4]": {"test": "Equivalent concentration of bitter taste, sensory evaluation, mixed amino acids (Example 29)", "conditions": "2% mixed amino acids; addition: Derivative 2 10 ppm, Glycyrrhizin 250 ppm, Sucrose 50000 ppm; no addition 0.105", "description": "as §1\nWith respect to the solution produced by adding derivative 2, Glycyrrhizin or sucrose (the product of the present invention), or adding nothing (no addition; the-reference product) to 2% (by weight) solution of the mixed amino acids (leucine:valine:isoleucine=1:0.5:0.5 by weight), the sensory evaluation was performed (using 10 panelists), and the equivalent concentration of bitter taste was determined in the same way as that described in Example 28, and shown in the table 5."}, "[5]": {"test": "Equivalent concentration of bitter taste (Example 30), ferrous citrate", "conditions": "derivative 4 2.2 ppm; ferrous citrate 50 ppm; no addition 0.027", "description": "as §1\n(§2) With respect to the solution produced by adding derivative 4 (2.2 ppm) to each of the substances of Quinine sulfate (39 ppm), anhydrous caffeine (2000 ppm), ferrous citrate (50 ppm), calcium lactate (1500 ppm), and thiamine hydrochloride (5000 ppm) (the product of the present invention), or adding nothing thereto (no addition; the reference product) the reference product (no addition), the sensory evaluation was performed (using 10 panelists), and the equivalent concentration of bitter taste was determined in the same way as that described in Example 28, and shown in table 6."}, "[6]": {"test": "Equivalent concentration of bitter taste (Example 30), anhydrous caffeine", "conditions": "derivative 4 2.2 ppm; anhydrous caffeine 2000 ppm; no addition 0.205", "description": "as §1, §2"}, "[7]": {"test": "Equivalent concentration of bitter taste (Example 30), thiamine hydrochloride", "conditions": "derivative 4 2.2 ppm; thiamine hydrochloride 5000 ppm; no addition 0.131", "description": "as §1, §2"}, "[8]": {"test": "Equivalent concentration of bitter taste (Example 30), Quinine sulfate", "conditions": "derivative 4 2.2 ppm; Quinine sulfate 39 ppm; no addition 0.084", "description": "as §1, §2"}, "[9]": {"test": "Equivalent concentration of bitter taste (Example 30), calcium lactate", "conditions": "derivative 4 2.2 ppm; calcium lactate 1500 ppm; no addition 0.054", "description": "as §1, §2"}}}
{"smiles": "COC(=O)[C@H](Cc1ccccc1)NC(=O)[C@H](CC(=O)O)NCCCc1ccc(OC)c(O)c1", "note": "[Derivative 1, N-[N-[3-(3-hydroxy-4-methoxyphenyl)propyl] -L-α-aspartyl]-L-phenylalanine 1-methyl ester]", "values": [{"measurement": "Equivalent concentration of bitter taste", "setting": "[1]", "value": 0.060, "unit": "g/100 g"}, {"measurement": "Amount equivalent to PSE 10%", "setting": "[2]", "value": 4.5, "unit": "mg/1000 ml"}, {"measurement": "magnification of sweetness intensity in the cola drink", "setting": "[2]", "value": 22600, "unit": "times"}, {"measurement": "Similarity index", "setting": "[3]", "value": 1.17}]}
{"smiles": "COC(=O)[C@H](Cc1ccccc1)NC(=O)[C@H](CC(=O)O)NCCCc1ccc(OC)cc1", "note": "[Derivative 2, N-[N-[3-(4-methoxyphenyl)propyl]-L-α-aspartyl]-L-phenylalanine 1-methyl ester]", "values": [{"measurement": "Equivalent concentration of bitter taste", "setting": "[4]", "value": 0.051, "unit": "g/100 g"}, {"measurement": "Amount equivalent to PSE 10%", "setting": "[2]", "value": 20.4, "unit": "mg/1000 ml"}, {"measurement": "magnification of sweetness intensity in the cola drink", "setting": "[2]", "value": 4900, "unit": "times"}, {"measurement": "Similarity index", "setting": "[3]", "value": 0.63}]}
{"smiles": "COC(=O)[C@H](Cc1ccccc1)NC(=O)[C@H](CC(=O)O)NCCC(C)(C)c1ccc(O)c(C)c1", "note": "[Derivative 4, N-[N-[3-(3-methyl-4-hydroxyphenyl)-3-methylbutyl]-L-α-aspartyl]-L-phenylalanine 1-methyl ester]", "values": [{"measurement": "Equivalent concentration of bitter taste (Amount of anhydrous caffeine g/100 g), Ferrous citarte", "setting": "[5]", "value": 0.020, "unit": "g/100 g"}, {"measurement": "Equivalent concentration of bitter taste (Amount of anhydrous caffeine g/100 g), Caffeine (anhydrous)", "setting": "[6]", "value": 0.045, "unit": "g/100 g"}, {"measurement": "Equivalent concentration of bitter taste (Amount of anhydrous caffeine g/100 g), Tiamine hydrochloride", "setting": "[7]", "value": 0.093, "unit": "g/100 g"}, {"measurement": "Equivalent concentration of bitter taste (Amount of anhydrous caffeine g/100 g), Quinine sulfate", "setting": "[8]", "value": 0.025, "unit": "g/100 g"}, {"measurement": "Equivalent concentration of bitter taste (Amount of anhydrous caffeine g/100 g), Calcium lactate", "setting": "[9]", "value": 0.025, "unit": "g/100 g"}, {"measurement": "Amount equivalent to PSE 10%", "setting": "[2]", "value": 3.4, "unit": "mg/1000 ml"}, {"measurement": "Similarity index", "setting": "[3]", "value": 0.93}]}
{"smiles": "COC(=O)[C@H](Cc1ccccc1)NC(=O)[C@H](CC(=O)O)NCCC(C)(C)c1ccc(O)cc1", "note": "[Derivative 6, N-[N-[3-(4-hydroxyphenyl)-3-methylbutyl]-L-α-aspartyl]-L-phenylalanine 1-methyl ester]", "values": [{"measurement": "Amount equivalent to PSE 10%", "setting": "[2]", "value": 7.1, "unit": "mg/1000 ml"}, {"measurement": "Similarity index", "setting": "[3]", "value": 0.93}]}
{"smiles": "COC(=O)[C@H](Cc1ccccc1)NC(=O)[C@H](CC(=O)O)NCCCc1ccc(O)c(C)c1", "note": "[Derivative 8, N-[N-[3-(3-methyl-4-hydroxyphenyl)propyl]-L-α-aspartyl]-L-phenylalanine 1-methyl ester]", "values": [{"measurement": "Amount equivalent to PSE 10%", "setting": "[2]", "value": 6.3, "unit": "mg/1000 ml"}, {"measurement": "Similarity index", "setting": "[3]", "value": 0.77}]}
